Experimental data from article PMC5310922, “A high-throughput phenotypic screen identifies clofazimine as a potential treatment for cryptosporidiosis” (PLoS Neglected Tropical Diseases, 2017).
Read-outs that look alike come from different tables or passages of the source.

Assays:
[1] = HepG2 72 h cytotoxicity (CellTiter-Glo); format: cell-based, human; settings: human
Description: (§1) Two mammalian cell lines were used for counter-screening for general cytotoxicity of hit compounds: human embryonic kidney cells (HEK293T; ATCC CRL-3216) and human hepatocellular carcinoma cells (HepG2; ATCC HB-8065). […] Compounds were pre-spotted into tissue culture-treated white solid-bottomed 1536-well plates (Greiner) in a 1:3 dose-response dilution (top concentration 20 μM). HEK293T and HepG2 cells were diluted to 75×10^3 cells/mL and 150×10^3 cells/mL, respectively, and 5 μL/well were dispensed into assay plates with a MultiFlo FX Multi-Mode Dispenser (Biotek). […] At the completion of the assay, CellTiter-Glo (Promega) was prepared at 1:2 (reagent:water) of the manufacturer’s instructions, and 2 μL were dispensed into each well. After a 5 min incubation at room temperature, luminescence readings were measured with an EnVision Multilabel Plate Reader (Perkin Elmer). […] were uploaded into Genedata Screener (v13.0-Standard), and data normalized to DMSO- and puromycin-treated wells. A four-parameter non-linear regression curve fit was applied to dose-response data using Genedata to determine the half maximal cytotoxic concentration (CC50) of each compound.

[2] = system: Cryptosporidium hominis (TU502); assay: C. hominis proliferation in HCT-8 cells, 48 h high-content imaging assay; format: cell-based; settings: read-out: C. hominis 48H Assay EC50 [µM] (SD; n)
Description: Methods for continuous, in vitro cultivation of Cryptosporidium spp. have not been well established. Instead, in vivo oocyst propagation of C. parvum is performed in calves, a more promiscuous Cryptosporidium species for animal and human infections. For C. hominis, gnotobiotic piglets are the primary means of propagation. The calf is the more accessible model, making C. parvum the more convenient species to screen. However, C. hominis is equally clinically relevant with regards to human cryptosporidiosis. […] High purity powders of the 10 filtered C. parvum Bioactives screen hits and both GHCDL screen hits were tested against C. hominis (TU502) to confirm activity against both species.
(§2) Cells were then plated (5 μL/well) into 1536-well assay plates at a density of 5.5×10^5 cells/mL (2,750 cells/well).
C. parvum oocysts (Iowa strain, isolated from infected calves) were purchased from the Sterling Parasitology Laboratory, University of Arizona, and stored at 4°C for ≤ 3 months in an antibiotic solution (0.01% Tween 20 containing 100 U/mL penicillin and 100 μg/mL gentamicin). C. hominis oocysts (TU502, isolated from gnotobiotic piglets) were purchased from the Tzipori Laboratory, Cummings School of Veterinary Medicine, Tufts University, and stored at 4°C for ≤ 2 weeks in an antibiotic solution (100 U/mL penicillin and 100 μg/mL streptomycin). For infection of assay plates, 24 h after cell seeding, oocysts were excysted and prepared for inoculation as previously described. Briefly, the oocysts were diluted into 1 mL pre-warmed 10 mM HCl and then incubated in a 37°C water bath for 10 min. Oocysts were then pelleted at 3,000×g for 1 min in a microcentrifuge (Thermo), and the supernatant was carefully aspirated. Oocysts were resuspended in 2 mM sodium taurocholate in DPBS++ (with 0.9 mM CaCl2 and 0.5 mM MgCl2) and incubated at room temperature for 20 min. After incubation in bile salts, the oocysts were diluted 1:100 and free sporozoites and intact oocysts were enumerated to determine the percentage of excystation.
Plates were then washed twice with phosphate buffered saline (PBS). […] To prevent non-specific binding, the cells were blocked with SuperBlock™ T20 blocking agent (Thermo) for 1 h at room temperature. Cryptosporidium parasites were stained with 1 μg/mL fluorescein isothiocyanate (FITC)-conjugated Vicia villosa lectin (Vector Laboratories) in 1:10 diluted SuperBlock™ in PBS-T, supplemented with 3 μM 4',6-diamidino-2-phenylindole (DAPI) to visualize host cell nuclei. Staining was for 1 h at room temperature in the dark. Finally, cells were washed twice with PBS-T and the plates were sealed with adhesive foil. The plates were imaged with a CellInsight CX5 High Content Screening Platform (Thermo) with a 10× objective. […] The software identified primary objects (HCT-8 host cells) and spots within allowed distances to the nuclei (Cryptosporidium). Both cytotoxicity against HCT-8 cells (number of nuclei relative to DMSO-treated controls) and Cryptosporidium inhibition (spot counts relative to DMSO-treated controls) were assessed.
Images were processed by the HCS Studio Scan software, and Selected Object Count (HCT-8 cells) and Spot Count (Cryptosporidium) were analyzed in Genedata Screener (v13.0-Standard). Spot Count and Selected Object Count were normalized to neutral controls minus inhibitors (floxuridine for Spot Count, and puromycin for Selected Object Count).

[3] = system: Cryptosporidium parvum; assay: C. parvum proliferation in HCT-8 cells, 48 h high-content imaging assay; format: cell-based, Cryptosporidium parvum (Iowa strain); settings: for EC50: 48 h; for EC99 against C. parvum: concentration used in washout assay
[4] = system: C. parvum; assay: Washout assay: 3-h treatments over the asexual life cycle of C. parvum
Description: We examined short, three-hour compound treatments of in vitro cultures, followed by compound washout, that covered the complete asexual life cycle, believed to be 13–15 h post invasion [36]. […] The treatment interval lasted 3 h before washout with fresh medium; infected cells were allowed to grow until 48 h post infection before fixation. […] As CFZ is very lipophilic, we sought to determine whether intracellular accumulation was affecting the strong inhibition across each time point.
Infected cells were treated in six 3-h increments over the course of 15 h (the presumed in vitro asexual lifecycle of C. parvum). HCT-8 cells were seeded (25 μL/well) into clear-bottomed 384-well plates (Greiner) at a density of 6.0×10^5 cells/mL (15,000 cells/well) in assay medium, and allowed to grow 24 h at 37°C with 5% CO2 in a humidified tissue culture incubator, covered with a custom metal lid (The Genomics Institute of the Novartis Research Foundation) to reduce evaporation. After 24 h, and 2 h before infecting with C. parvum oocysts (time -2 hpi), the treatment time course was initiated. […] DMSO was used as a negative control. Cell medium was removed from designated wells and replaced with medium containing either compound or DMSO. […] Plates were then spun at 150×g for 3 min, and kept at 37°C with 5% CO2 in a humidified tissue culture incubator during drug treatment intervals. At the end of each 3 h time point, infected cells were carefully washed three times with fresh, pre-warmed assay medium, and the next set of wells for the subsequent time point were treated. The final time point extended to 18 h, to cover re-invasion of merozoites into new HCT-8 cells. After the final compound treatment was washed off, infected cells were allowed to grow until 48 h post infection.

[5] = in vitro; settings: human
Description: as §2
(§3) Plates were then washed twice with phosphate buffered saline (PBS). […] To prevent non-specific binding, the cells were blocked with SuperBlock™ T20 blocking agent (Thermo) for 1 h at room temperature. Cryptosporidium parasites were stained with 1 μg/mL fluorescein isothiocyanate (FITC)-conjugated Vicia villosa lectin (Vector Laboratories) in 1:10 diluted SuperBlock™ in PBS-T, supplemented with 3 μM 4',6-diamidino-2-phenylindole (DAPI) to visualize host cell nuclei. Staining was for 1 h at room temperature in the dark. Finally, cells were washed twice with PBS-T and the plates were sealed with adhesive foil. The plates were imaged with a CellInsight CX5 High Content Screening Platform (Thermo) with a 10× objective. […] For 1536-well format assays (primary screening, triplicate reconfirmation, and dose-response reconfirmation, one microscopic field (802,511.39 μm^2) per well, and for the 384-well washout assay, 4 fields per well were captured. The software identified primary objects (HCT-8 host cells) and spots within allowed distances to the nuclei (Cryptosporidium). Both cytotoxicity against HCT-8 cells (number of nuclei relative to DMSO-treated controls) and Cryptosporidium inhibition (spot counts relative to DMSO-treated controls) were assessed.
(§4) Images were processed by the HCS Studio Scan software, and Selected Object Count (HCT-8 cells) and Spot Count (Cryptosporidium) were analyzed in Genedata Screener (v13.0-Standard). Spot Count and Selected Object Count were normalized to neutral controls minus inhibitors (floxuridine for Spot Count, and puromycin for Selected Object Count). For single-point primary assay plates, an additional run-wise median correction was applied to reduce screen artifacts (e.g. uneven dispense), whereas no correction was applied to triplicate reconfirmation and dose-response plates. For primary screening, a compound is considered a hit by a ≥ 70% reduction in Corrected Spot Count. Compounds that caused moderate cytotoxicity were filtered out (i.e., excluding all Corrected Selected Object Counts ≤ -60%). Dose-response curves were fit with Genedata Analyzer using the Smart Fit function.

[6] = HEK293T 72 h cytotoxicity (CellTiter-Glo); format: cell-based, human; settings: human
Description: as §1

[7] = system: C. parvum; assay: Host cell 3-h pre-treatment, with or without wash, then C. parvum infection; format: cell-based, Cryptosporidium parvum; settings: for EC50: Cryptosporidium parvum, host cells pretreated 3 h, C. parvum, 48 hpi
Description: A set of parallel wells were also treated and not washed prior to infection. 48 hpi, infected cells were imaged as described above, and EC50s for each compound pre- and post-wash were determined.

[8] = system: HepG2; assay: HepG2 72 h cytotoxicity (CellTiter-Glo); format: cell-based, human
Description: as §1

[9] = system: HCT-8 (Host cells); assay: in vitro
Description: as §2, §3, §4

[10] = system: HEK293T; assay: HEK293T 72 h cytotoxicity (CellTiter-Glo); format: cell-based, human
Description: as §1

[11] = Cryptosporidium hominis, in HCT-8 cells, 48 h, value (SD; n)
[12] = Cryptosporidium parvum, HCT-8 cells, read-out: EC50 against C. parvum
[13] = Cryptosporidium parvum, in HCT-8 cells, value (SD; n), read-out: C. parvum 48H Assay EC50 [µM] (SD; n)
[14] = HepG2 cells, 72 h, value (SD; n), read-out: HepG2 72H Cytotoxicity CC50 [µM] (SD; n)
[15] = HEK293T cells, 72 h, value (SD; n), read-out: HEK293T 72H Cytotoxicity CC50 [µM] (SD; n)
[16] = 72 h, value (SD; n), read-out: HepG2 72H Cytotoxicity CC50 [µM] (SD; n)
[17] = 72 h, value (SD; n), read-out: HEK293T 72H Cytotoxicity CC50 [µM] (SD; n)
[18] = in HCT-8 cells, 48 h, value (SD; n)
[19] = in HCT-8 cells, value (SD; n), read-out: C. parvum 48H Assay EC50 [µM] (SD; n)
[20] = read-out: HCT-8 (Host cells) 48H Assay CC50 [µM] (SD; n), 48 h, value (SD; n)

| Compound | EC50 [2, 11] [µM] | EC50 [3, 12] [µM] | EC50 [3, 13] [µM] | CC50 at 72 h [1, 14] [µM] | CC50 at 48 h ([5]; HCT-8 cells) [nM] | CC50 at 72 h [6, 15] [µM] | EC50 [2, 18] [µM] | EC50 [3, 19] [µM] | further results |
| --- | --- | --- | --- | --- | --- | --- | --- | --- | --- |
| O=c1[nH]c(=O)n([C@H]2C[C@H](O)[C@@H](CO)O2)cc1F [5-fluoro-2'-deoxyuridine; Floxuridine, 5-fluoro-2'-deoxyuridine] | 0.0182 | 0.017 | 0.0172 |  |  |  |  |  | CC50 at 72 h [1]: 0.214 µM; EC99 against C. parvum [3]: 0.1 µM; inhibition of C. parvum proliferation, every 3-h time point of the asexual life cycle ([4]; treated at EC99 for 3 h, washout, read at 48 hpi): strong inhibition of growth across all time points; CC50 at 48 h [5]: 154 nM; CC50 at 72 h [6]: 0.0471 µM; EC50 ([7]; read-out: Post-wash EC50): 9.4 nM; EC50 ([7]; read-out: Pre-wash EC50): 53 nM; inhibition of C. parvum proliferation after compound removal by repeated washes ([7]; host cell pre-treatment, dose-response): near equipotent inhibition |
| OC1CCCC2Nc3nonc3NC(c3ccc(Cl)cc3Cl)C12 (stereo not drawn) [GHCDL-1] | 2.82 | 1.42 |  | > 20 | > 12500 | > 20 |  |  |  |
| Cc1csc(NCC(O)c2c[nH]c3ccccc23)n1 (stereo not drawn) [GHCDL-2] | 0.946 | 0.293 |  | > 20 | > 12500 | > 20 |  |  |  |
| Cn1c2ccccc2c2c3c(c4c5ccccc5n(CCC#N)c4c21)CNC3O (stereo not drawn) [Gö 6976] | 0.00496 | 0.0025 | 0.00245 | > 20 | > 12500 | 0.124 |  |  |  |
| CC[C@@]1([C@@H]2O[C@@H]([C@H]3O[C@@](O)(CO)[C@H](C)C[C@@H]3C)C[C@@H]2C)CC[C@H]([C@]2(C)CC[C@]3(C[C@H](O)[C@@H](C)[C@@H]([C@@H](C)[C@@H](OC)[C@H](C)C(=O)O)O3)O2)O1 [Monensin sodium] |  | 0.007 | 0.00704 |  |  |  |  |  | CC50 at 72 h [1, 16]: 1.65 µM; EC50 ([2]; Cryptosporidium hominis, HCT-8, 48 h): 0.0103 µM; CC50 at 48 h [5]: > 12500 nM; CC50 at 72 h [6, 17]: 0.516 µM |
| Oc1ccc(Cl)cc1NC(S)NC(O)c1cccc(Br)c1 (stereo not drawn) [NSC215721] | 0.176 |  | 0.278 | > 20 | > 12500 | > 20 |  |  |  |
| COc1cc(Nc2ncc(F)c(Nc3ccc4c(n3)NC(O)C(C)(C)O4)n2)cc(OC)c1OC (stereo not drawn) [R406] | 0.647 |  | 0.254 | 0.596 | > 12500 | > 20 |  |  |  |
| Momelotinib [Momelotinib; CYT-387] |  |  |  |  |  |  | 0.389 | 0.37 | CC50 [8]: 7.76 µM; CC50 [9]: 6.05 µM; CC50 [10]: 19 µM |
| Nitazoxanide |  |  |  |  |  |  | 2.82 | 2.84 | CC50 [8, 16]: > 48 µM; EC50 ([3]; HCT-8 cells, read-out: EC50 against C. parvum): 2.8 µM; EC99 against C. parvum [3]: 8 µM; inhibition of parasite growth at all time points other than 10–13 h post infection ([4]; 3-h treatment then washout, even at 3×EC99): < 60%; CC50 [9, 20]: > 10 µM; CC50 [10, 17]: > 48 µM |
| Puromycin |  |  |  |  |  |  | 0.742 | 0.482 | CC50 [8, 16]: 1.13 µM; CC50 [9, 20]: 3.15 µM; CC50 [10, 17]: 0.519 µM |
| Rocilinostat [Rocilinostat; ACY-1215] |  |  |  |  |  |  | 0.451 | 0.356 | CC50 [8]: 0.849 µM; CC50 [9]: 11.4 µM; CC50 [10]: 12.1 µM |
| Vorinostat [Vorinostat; SAHA] |  |  |  |  |  |  |  |  | CC50 [8]: 1.07 µM; CC50 [9]: 1.84 µM; CC50 [10]: 4.27 µM |
